This passage reports Kd results from article PMC10482274, “Probing the substrate binding modes and catalytic mechanisms of BLEG-1, a promiscuous B3 metallo-β-lactamase with glyoxalase II properties” (PLOS ONE, 2023).

SMILES strings stand for the structures.

This assay addresses T1, BLEG-1 (B3 metallo-β-lactamase) (Shouchella lehensis, UniProt A0A060M4R1).
T1 construct: gene BleG1_2478; wild-type recombinant BLEG-1 (26 kDa), purified by Ni-NTA
As to the kind of experiment: circular dichroism titration ([…] nm, non-linear regression); hydrolysis assay at […] nm with the purified enzyme. The format is binding.

T1 sequence (A0A060M4R1 entry or part of it): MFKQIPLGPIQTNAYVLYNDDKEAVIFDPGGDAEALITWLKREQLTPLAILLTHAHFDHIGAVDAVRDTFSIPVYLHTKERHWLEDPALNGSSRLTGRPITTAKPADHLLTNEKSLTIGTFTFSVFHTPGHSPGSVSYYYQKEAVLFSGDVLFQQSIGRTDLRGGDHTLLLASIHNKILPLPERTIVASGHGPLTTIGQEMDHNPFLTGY

As for `CC1(C)S[C@@H]2[C@H](NC(=O)[C@H](N)c3ccccc3)C(=O)N2[C@H]1C(=O)O` [ampicillin], the Kd came to 1510 nM.
